Experimental data published in patent US10532088B2, “Adoptive cellular therapy using an agonist of retinoic acid receptor-related orphan receptor gamma and related therapeutic methods” (Lycera Corporation, priority 2014, dated 2020).

Legend:
[1] = target: T1, RORγ-LBD (Homo sapiens, UniProt P51449); test: RORγ-Ligand Binding Domain (LBD) TR-FRET Assay; assay type: biochemical
T1 construct: HIS-tagged RORγ-LBD protein was expressed in SF9 cells using a baculovirus expression system; made in house; host or cells: SF9 insect cells, baculovirus; lysate used
T1 sequence (P51449 269-508 limits assumed): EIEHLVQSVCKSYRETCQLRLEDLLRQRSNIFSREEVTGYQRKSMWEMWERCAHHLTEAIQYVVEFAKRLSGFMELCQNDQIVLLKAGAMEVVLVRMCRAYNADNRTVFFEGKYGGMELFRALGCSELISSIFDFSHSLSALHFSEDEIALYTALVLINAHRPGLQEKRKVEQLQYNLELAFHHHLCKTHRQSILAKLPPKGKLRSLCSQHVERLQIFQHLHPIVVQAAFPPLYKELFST
Protocol: HIS-tagged RORγ-LBD protein was expressed in SF9 cells using a baculovirus expression system. The lysate was diluted in assay buffer (50 mM Tris pH 7.0, 50 mM KCl, 1 mM EDTA, 0.1 mM DTT, 0.01% BSA) to obtain RORγ-LBD final concentration of ˜3 nM in a 384-well assay plate (need to titrate for each batch of protein).
A stock of biotinylated-LXXLL peptide from coactivator SRC1 (Biotin-[…]) was prepared in assay buffer and added to each well (200 nM final concentration). […] RORγ antagonist ursolic acid was also included at a final concentration of 2 μM. Compounds were diluted in DMSO and further diluted in assay buffer with a final DMSO concentration at 1%.

[2] = target: T2, Gal4-RORγ-LBD (Homo sapiens, UniProt P51449); test: Gal4-RORγ Luciferase Reporter Assay in HEK-293T Cells; assay type: cell-based
T2 construct: expressed in transfected cells
T2 sequence (P51449 269-508 limits assumed): T1 sequence (P51449 269-508 limits assumed)
Protocol: In the following protocol, HEK-293 cells were transfected with a construct comprising the Gal4 DNA binding domain fused to the ligand binding domain of RORγ (Gal4-RORγ-LBD) in a pcDNA3.1neo plasmid, and also with a reporter construct comprising pGL4.31 Gal4-luciferase (Promega). Control cells were prepared similarly using empty pcDNA3.1neo and pGL4.31 vectors.
Trans-IT reagent (Mirus, 60 μL) at room temperature was added drop wise to OptiMEM (Invitrogen, 1.5 ml). This reagent mixture was mixed by inversion then incubated for 5 to 30 minutes at room temperature. It then was added to a solution of both expression vectors (5 μg each), mixed, and incubated at room temperature for about 20 minutes. HEK-293 cells were harvested from incubation flasks by removing the media, treating with TrypLE Express (Invitrogen), and incubating until the cells detached from the bottom of the flask (approximately 2-5 minutes). […]
The cells were harvested as described above, counted, and centrifuged to obtain the desired number of cells, then re-suspended in complete growth media at 0.75×10^6 cells/mL. […] The luciferase intensity was read on an Envision plate reader (Perkin Elmer). […] The Max Response is the upper plateau in the signal as determined by line-fit using a 4-parameter logistic model in PRISM (GraphPad).

[3] = system: EG7 tumors; test: Adoptive transfer of Tc17 cells treated ex vivo with RORγ agonist to mice bearing EG7 tumors; assay type: in vivo; conditions: Tc17 cells exposed ex vivo to compound at 10 μM; FIG. 1 Part A
Protocol: EG7 cells (EL4 cells with OVA expression) were grown in RPMI 1640 medium (Invitrogen)/10% heat-inactivated FBS (Hyclone), penicillin-streptomycin, and 50 mM β-mercaptoethanol (Invitrogen); harvested; washed with phosphate-buffered saline (PBS); and then implanted at 1×10^6 cells/mouse in PBS into the flank of mice subcutaneously. Implanted tumor cells grow into visible tumor in about one week. Mice are provided food and water ab libitum throughout the duration of the experiment.
Three to five days after tumor cell transplantation, Tc17 differentiation culture is set up. […]
When a tumor becomes visible, tumor volume is assessed by caliper measurement of the length and width and tumor volume is calculated (0.5×(length×(width)^2). When the tumor becomes visible in most mice (typically 7-10 days after implantation), mice are randomized by tumor volume (tumor volume is <500 mm^3) and divided into three groups. Differentiated Tc17 cells (with or without RORγ agonist) are counted, washed with phosphate buffered saline (PBS), and then the cells are injected into tumor-bearing mice at 5×10^6 cells/mouse intraperitoneally or intravenously using a PBS carrier to deliver the cells. […]
After T cell transfer, tumor volume was assessed every 2 to 3 days. In studies where survival is assessed, mice that are alive and have tumor volume smaller than 3000 mm^3 are considered survivors.

EC50 ([1]; in presence of 2 μM RORγ antagonist ursolic acid): < 500 nM
TR-FRET Assay Average Max Response ([1]; upper plateau, signal in absence of ursolic acid or test compound set as 100): **** (a value greater than 200)
EC50 ([2]; HEK-293 cells, 2 μM ursolic acid): 500 to 5000 nM
Structure (SMILES): C[C@H]1CN(S(=O)(=O)c2cccc(C(F)(F)F)c2)c2cc(COc3c(F)cccc3Cl)ccc2O1 [Compound 1]
Gal4-RORγ Assay Average Max Response ([2]; upper plateau, luciferase signal in absence of ursolic acid or test compound defined at 100): ** (a value in the range of greater than 90 to 150)
change in tumor volume over time, p vs. DMSO treated Tc17 cells [3]: < 0.004
